Broadly, the Ki is the equilibrium dissociation constant of an inhibitor or competing ligand from its target.

Structures are written as SMILES.

For one experiment, the target named is T1, JAK3 (Homo sapiens, UniProt P52333).
T1 sequence (P52333 1-1124): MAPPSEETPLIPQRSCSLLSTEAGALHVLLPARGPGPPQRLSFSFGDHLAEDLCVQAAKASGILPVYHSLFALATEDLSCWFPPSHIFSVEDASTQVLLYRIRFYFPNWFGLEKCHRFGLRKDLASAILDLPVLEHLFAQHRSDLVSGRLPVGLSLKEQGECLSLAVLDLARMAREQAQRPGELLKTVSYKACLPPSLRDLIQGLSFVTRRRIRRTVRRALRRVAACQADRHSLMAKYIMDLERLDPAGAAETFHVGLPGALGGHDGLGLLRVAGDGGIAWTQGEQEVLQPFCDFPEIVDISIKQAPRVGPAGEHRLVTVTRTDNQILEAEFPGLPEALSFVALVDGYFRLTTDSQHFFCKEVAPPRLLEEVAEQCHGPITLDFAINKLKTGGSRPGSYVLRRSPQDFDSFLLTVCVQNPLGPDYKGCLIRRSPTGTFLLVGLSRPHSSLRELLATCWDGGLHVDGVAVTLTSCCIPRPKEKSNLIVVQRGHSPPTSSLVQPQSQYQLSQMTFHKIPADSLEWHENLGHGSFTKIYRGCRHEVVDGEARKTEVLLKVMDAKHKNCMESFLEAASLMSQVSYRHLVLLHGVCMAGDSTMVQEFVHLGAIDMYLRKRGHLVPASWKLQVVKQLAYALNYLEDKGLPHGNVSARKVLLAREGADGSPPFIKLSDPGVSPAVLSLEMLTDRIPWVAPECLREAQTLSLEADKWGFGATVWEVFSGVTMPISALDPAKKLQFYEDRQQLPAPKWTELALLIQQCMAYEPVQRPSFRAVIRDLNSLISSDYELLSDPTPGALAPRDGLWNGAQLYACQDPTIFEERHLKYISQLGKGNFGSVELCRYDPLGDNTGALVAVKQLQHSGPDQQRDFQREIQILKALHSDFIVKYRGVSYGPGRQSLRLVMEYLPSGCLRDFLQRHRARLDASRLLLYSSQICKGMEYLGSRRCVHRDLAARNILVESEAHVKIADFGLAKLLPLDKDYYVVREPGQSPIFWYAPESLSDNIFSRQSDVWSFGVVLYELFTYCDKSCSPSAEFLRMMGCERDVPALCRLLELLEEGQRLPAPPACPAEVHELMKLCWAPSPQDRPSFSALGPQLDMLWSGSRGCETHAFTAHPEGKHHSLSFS
The experiment in a line: JAK3 Inhibition Assay, 33P incorporation. The experiment is classed as biochemical. To be noted: enzyme inhibition data (Ki), Table 11. The gist of the method:
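33P incorporation into 1 μM poly(Glu)4Tyr was counted after TCA stop and glass fiber filtration. The 20 min reaction ran at 25 °C with 1 nM JAK3 and 5 μM ATP (200 uCi/μmole). Buffer was 100 mM HEPES pH 7.4, 10 mM MgCl2, 25 mM NaCl, 1 mM DTT, 0.01% BSA.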

A further experiment concerns the target T2, Itk (Homo sapiens, UniProt Q08881).
T2 sequence (Q08881 1-620): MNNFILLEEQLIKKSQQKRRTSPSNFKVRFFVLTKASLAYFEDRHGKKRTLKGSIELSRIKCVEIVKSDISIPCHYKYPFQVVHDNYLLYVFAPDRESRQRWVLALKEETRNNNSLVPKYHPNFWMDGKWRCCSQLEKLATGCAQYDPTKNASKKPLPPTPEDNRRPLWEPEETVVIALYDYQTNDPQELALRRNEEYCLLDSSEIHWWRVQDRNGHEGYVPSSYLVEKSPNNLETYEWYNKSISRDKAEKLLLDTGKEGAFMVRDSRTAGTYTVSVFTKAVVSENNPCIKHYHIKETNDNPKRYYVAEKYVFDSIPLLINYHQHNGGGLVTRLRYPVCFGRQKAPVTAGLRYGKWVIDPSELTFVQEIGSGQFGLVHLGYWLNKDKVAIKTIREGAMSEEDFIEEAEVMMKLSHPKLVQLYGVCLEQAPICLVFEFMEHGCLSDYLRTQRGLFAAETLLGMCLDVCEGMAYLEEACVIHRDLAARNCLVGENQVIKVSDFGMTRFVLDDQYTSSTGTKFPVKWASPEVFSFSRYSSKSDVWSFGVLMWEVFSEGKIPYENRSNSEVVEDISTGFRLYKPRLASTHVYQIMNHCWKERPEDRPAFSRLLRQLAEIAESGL
The experiment in a line: ITK Inhibition Assay (Radiometric), radioactive-phosphate incorporation. The experiment is classed as biochemical. The conditions noted are these: enzyme inhibition data (Ki), Table 11; radiometric or UV assay not stated. The method in brief: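 Radiometric 33P incorporation into SAM68 peptide (D332-443) with filter capture and scintillation counting; 10 min pre-incubation then 10 min reaction at 25° C. IC50 format: 30 nM Itk, 15 μM ATP, 2 μM peptide, HEPES pH 7.5. Ki(app) format: 50 nM Itk, 7.5 μM ATP, 3 μM peptide, MOPS pH 7.0.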

For the compound `COc1ccccc1-c1cnc2c(-c3ccccn3)c(N)nn2c1` [Compound V-14], the Ki at JAK3 was above 5 µM; on Itk, 0.5 to 5 µM.
In the same order, the values of `CS(=O)(=O)Nc1cccc(-c2cnc3c(-c4ccccn4)c(N)nn3c2)c1` [Compound V-18] are above 5 µM and below 0.5 µM.
In the same order, the values of `Nc1nn2cc(-c3ccc(C(=O)NC4CCCO4)cn3)cnc2c1-c1ccccn1` (centres unmarked) [Compound V-96] are above 5 µM and 0.5 to 5 µM.
Taken in the same sequence, the figures for `CC(C)CN(C)C(=O)c1ccc(-c2cnc3c(-c4ccccn4)c(N)nn3c2)nc1` [Compound V-97] were 0.5 to 5 µM and below 0.5 µM.
Consider `CCN(CC)C(=O)c1ccc(-c2cnc3c(-c4ccccn4)c(N)nn3c2)nc1` [Compound V-98], for which the Ki was 0.5 to 5 µM at JAK3 and below 0.5 µM at Itk.
In the same order, the values of `CN1CCC(N(C)C(=O)c2cccc(-c3cnc4c(-c5ccccn5)c(N)nn4c3)n2)CC1` [Compound V-101] are above 5 µM and 0.5 to 5 µM.
In the same order, the values of `CCN1CCN(C(=O)c2cccc(-c3cnc4c(-c5ccccn5)c(N)nn4c3)n2)CC1` [Compound V-102] are above 5 µM and 0.5 to 5 µM.
In the same order, the values of `Nc1nn2cc(-c3cccc(C(=O)N4CCC(N)CC4)n3)cnc2c1-c1ccccn1` [Compound V-104] are above 5 µM and 0.5 to 5 µM.
On to `C#CCN(C)C(=O)c1cccc(-c2cnc3c(-c4ccccn4)c(N)nn3c2)n1` [Compound V-106], for which the Ki is above 5 µM on JAK3 and 0.5 to 5 µM at Itk.
As to `Nc1nn2cc(-c3cccc(C(=O)N4CCCC4CO)n3)cnc2c1-c1ccccn1` (centres unmarked) [Compound V-112], the Ki on JAK3 was above 5 µM; on Itk, 0.5 to 5 µM.
Regarding `CN(CCC#N)C(=O)c1cccc(-c2cnc3c(-c4ccccn4)c(N)nn3c2)n1` [Compound V-114], the Ki was above 5 µM on JAK3 and 0.5 to 5 µM on Itk.
In the same order, the values of `CCN(C)C(=O)c1cccc(-c2cnc3c(-c4ccccn4)c(N)nn3c2)n1` [Compound V-115] are above 5 µM and 0.5 to 5 µM.
Taken in the same sequence, the figures for `CCN(CCC#N)C(=O)c1cccc(-c2cnc3c(-c4ccccn4)c(N)nn3c2)n1` [Compound V-116] were above 5 µM and 0.5 to 5 µM.
Taken in the same sequence, the figures for `CCN(CC)CCN(C)C(=O)c1cccc(-c2cnc3c(-c4ccccn4)c(N)nn3c2)n1` [Compound V-124] were above 5 µM and 0.5 to 5 µM.
With `CCN(CC)C(=O)c1cccc(-c2cnc3c(-c4ccccn4)c(N)nn3c2)n1` [Compound V-127], the Ki on JAK3 was above 5 µM; on Itk, 0.5 to 5 µM.
In the same order, the values of `COCCCN1CCN(C(=O)c2ccc(-c3cnc4c(-c5ccccn5)c(N)nn4c3)nc2)CC1` [Compound V-129] are 0.5 to 5 µM and below 0.5 µM.
In the same order, the values of `CN(CCCN)C(=O)c1ccc(-c2cnc3c(-c4ccccn4)c(N)nn3c2)nc1` [Compound V-130] are above 5 µM and below 0.5 µM.
Taken in the same sequence, the figures for `Cc1ccc(-c2c(N)nn3cc(-c4ccncc4)cnc23)nc1` [Compound V-132] were above 5 µM and 0.5 to 5 µM.
For `Cc1ccnc(-c2c(N)nn3cc(-c4ccncc4)cnc23)c1` [Compound V-133], the Ki on JAK3 and on Itk was 0.5 to 5 µM in each case.
`Nc1nn2cc(-c3ccncc3)cnc2c1-c1ncccc1OCc1ccccc1` [Compound V-134]: the Ki at JAK3 is above 5 µM; at Itk, 0.5 to 5 µM.
In the same order, the values of `Cc1cccnc1-c1c(N)nn2cc(-c3ccncc3)cnc12` [Compound V-135] are above 5 µM and 0.5 to 5 µM.
As for `COC(=O)C1CCCN1C(=O)c1cccc(-c2cnc3c(-c4ccccn4)c(N)nn3c2)n1` (centres unmarked) [Compound V-139], the Ki on JAK3 was above 5 µM; at Itk it was 0.5 to 5 µM.
Consider `CC(C)N1CCN(c2ccc(-c3cnc4c(-c5ccccn5)c(N)nn4c3)cn2)CC1` [Compound V-146], for which the Ki at JAK3 was above 5 µM; on Itk, below 0.5 µM.
In the case of `Nc1nn2cc(-c3ccc(N4CCNCC4)nc3)cnc2c1-c1ccccn1` [Compound V-151], the Ki at JAK3 is above 5 µM; on Itk it was below 0.5 µM.
Taken in the same sequence, the figures for `Nc1nn2cc(-c3ccc(N4CCC[C@H]4CN4CCCC4)nc3)cnc2c1-c1ccccn1` [Compound V-152] were above 5 µM and below 0.5 µM.
In the same order, the values of `Nc1nn2cc(-c3cccc(C(=O)N4CCC[C@H]4CN4CCCC4)n3)cnc2c1-c1ccccn1` [Compound V-154] are above 5 µM and 0.5 to 5 µM.
Taken in the same sequence, the figures for `CN(CCCN)C(=O)c1cccc(-c2cnc3c(-c4ccccn4)c(N)nn3c2)n1` [Compound V-155] were 0.5 to 5 µM and below 0.5 µM.
In the case of `COCCNc1ccc(-c2cnc3c(-c4ccccn4)c(N)nn3c2)cn1` [Compound V-156], the Ki on JAK3 is above 5 µM; at Itk, 0.5 to 5 µM.
Taken in the same sequence, the figures for `CN(C)CCNc1ccc(-c2cnc3c(-c4ccccn4)c(N)nn3c2)cn1` [Compound V-159] were 0.5 to 5 µM and below 0.5 µM.
With `CN1CCCN(c2ccc(-c3cnc4c(-c5ccccn5)c(N)nn4c3)cn2)CC1` [Compound V-160], the Ki at JAK3 was above 5 µM; on Itk, 0.5 to 5 µM.
In the same order, the values of `Nc1nn2cc(-c3ccc(N4CCC(N)CC4)nc3)cnc2c1-c1ccccn1` [Compound V-165] are above 5 µM and below 0.5 µM.
Turning to `CCN1CCN(c2ccc(-c3cnc4c(-c5ccccn5)c(N)nn4c3)cn2)CC1` [Compound V-166], the figures for the Ki at JAK3 and on Itk were above 5 µM and below 0.5 µM, respectively.
In the case of `CCN(CC)CCN(C)c1ccc(-c2cnc3c(-c4ccccn4)c(N)nn3c2)cn1` [Compound V-173], the Ki at JAK3 is 0.5 to 5 µM; on Itk it was below 0.5 µM.
In the same order, the values of `Nc1nn2cc(-c3cccc(C(=O)N4CCC[C@@H]4CN4CCCC4)n3)cnc2c1-c1ccccn1` [Compound V-175] are 0.5 to 5 µM and 0.5 to 5 µM.
Taken in the same sequence, the figures for `Nc1nn2cc(-c3ccc(N4CCC[C@@H]4CN4CCCC4)nc3)cnc2c1-c1ccccn1` [Compound V-176] were 0.5 to 5 µM and below 0.5 µM.
In the same order, the values of `Nc1nn2cc(-c3ccc(C(=O)N4CCC[C@H]4CN4CCCC4)cn3)cnc2c1-c1ccccn1` [Compound V-177] are 0.5 to 5 µM and below 0.5 µM.
Take `Cc1cccc(-c2c(N)nn3cc(-c4ccncc4)cnc23)n1` [Compound V-178]: the Ki on JAK3 is above 5 µM; at Itk, below 0.5 µM.
Regarding `Nc1nn2cc(-c3ccncc3)cnc2c1-c1cc(N2CCCCC2)ncn1` [Compound V-179], the Ki on JAK3 and on Itk was below 0.5 µM in each case.
On to `CCN(CC)c1cc(-c2c(N)nn3cc(-c4ccncc4)cnc23)ncn1` [Compound V-180], for which the Ki on JAK3 and on Itk was below 0.5 µM throughout.
Consider `CNc1cc(-c2c(N)nn3cc(-c4ccncc4)cnc23)ncn1` [Compound V-181], for which the Ki on JAK3 and on Itk was below 0.5 µM in each case.
